The record followed here is US7713994B2 (Wyeth LLC, priority 2005, dated 2010).

By pIC50 is commonly meant −log10 of the IC50, conventionally taken in molar units.

pIC50: −log10 of the molar value. Read-outs that look alike come from different tables or passages of the source.

One assay relates to BT474. The assay is described as follows: Cytotoxicity assay (SRB), BT474. Format: cell-based. The settings on record: Homo sapiens, BT-474, 144 h, read-out: In Vitro Cellular Activity IC50 BT474. In outline:
(§1)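 BT474 (12000 cells/well) was treated for 6 days, whereas HCT-116 (4000), LoVo (6000) and MCF-7 (6000) were treated for 3 days, all in RPMI 1640 containing 5% FBS. Surviving-cell percentage came from SRB dye binding measured at 540 nm.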

The subject of a further assay is MCF-7. The assay is described as follows: Cytotoxicity assay (SRB), MCF-7. Format: cell-based. To be noted: Homo sapiens, MCF7, 72 h, read-out: In Vitro Cellular Activity IC50 MCF-7. In outline: as §1
Another assay concerns LoVo. The assay is described as follows: Cytotoxicity assay (SRB), LoVo. Format: cell-based. To be noted: Homo sapiens, LoVo, 72 h, read-out: In Vitro Cellular Activity IC50 LOVO. In outline:
as §1

For a further assay, the system named is HCT-116. Nature of the assay: Cytotoxicity assay (SRB), HCT-116. Format: cell-based. The settings on record: Homo sapiens, HCT-116, 72 h, read-out: In Vitro Cellular Activity IC50 HCT116. In short, it runs like this:
as §1

Another assay deals with T1, cyclin D1/cdk 4 enzyme (Homo sapiens, UniProt P11802).
T1 construct: made in house; host or cells: Sf9 insect cells, recombinant baculovirus
The assay is described as follows: CDK4 ELISA kinase assay (phospho-Rb ser 795 detection). Format: biochemical. In outline:
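Screening was done at 10 ug/ml compound. Each partially purified cyclin/CDK complex, produced in baculovirus-infected Sf9 cells, phosphorylated a coated GST-Rb C-terminal fragment with 200 μM ATP, and Ser795 phosphorylation was quantified by HRP-ELISA at 450 nm.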
A general note: ELISA stands for enzyme-linked immunosorbent assay.

Another assay has as its target T2, cyclin B/CDK1 enzyme (Homo sapiens, UniProt P06493).
T2 construct: purchased New England BioLabs; host or cells: Sf9 insect cells, recombinant baculovirus
The assay is described as follows: CDK1 ELISA kinase assay (phospho-Rb ser 795 detection). Format: biochemical. As to the method:
• 1. High-binding ELISA microtiter plates (Costar) were coated with 40 μl of the kinase substrate (GST fusion of C-terminal fragment of the retinoblastoma susceptibility gene product) diluted to 10 μg/ml in tris-buffered saline (TBS), overnight at 4° C. • 2. Non-specific binding sites were blocked for 1 hour at 4° C. with Superblock in TBS (Pierce), and the plates rinsed with water. • 3. For the screen, 1.5 μl of test compound (200 μg/ml stock in 20% DMSO/20 mM HEPES, pH 7.5) was added to each well. Final dose of the test compound in the assay was 10 ug/ml. […] The kinase reaction (30 μl) was dispensed into each well. Reactions contained 200 μM ATP, 0.5 mg/ml bovine serum albumin (BSA; Sigma), and 0.5 μl partially purified cyclin D1/cdk 4 enzyme*. The enzyme complex is expressed in insect cells (Sf9) infected with recombinant baculovirus and partially purified using ammonium sulfate fractionation. Reaction volumes were adjusted to 30 μl with kinase assay buffer (50 mM HEPES, pH 7.5, 10 mM MgCl2, 5% glycerol, 10 mM 2-mercaptoethanol). • *: For CDK2 assay, 1.0 μl cyclin E/CDK2 enzyme (diluted 1:1000 in kinase assay buffer) was used. The enzyme is isolated from insect cells (Sf9) infected with recombinant baculovirus and partially purified using ammonium sulfate fractionation. For CDK1 assay, 0.08 μl cyclin B/CDK1 enzyme [New England BioLabs; the enzyme is isolated from insect cells (Sf9) infected with recombinant baculovirus carrying human cdc 2 and human cyclin B] was used.
[…] • 5. Plates were incubated at 30° C. for 1 hour. • 6. The reaction mixture was removed by aspiration and replaced with 250 μl TBS containing 0.1% Tween-20 and 5% nonfat dry milk (blocking buffer). The plates were incubated at 4° C. for 1 hour. • 7. The blocking buffer was removed and replaced with 50 μl of the primary antibody [anti-phospho-Rb ser 795 (New England BioLabs) diluted 1:1000 in blocking buffer]. Incubation was at 4° C. for 16-20 hours. • 8. The wells were rinsed 3 times with 250 μl of TBS containing 0.1% Tween-20 followed by the addition of 50 μl of secondary antibody [anti-rabbit IgG conjugated to horseradish peroxidase (Amersham Life Science) diluted 1:1000 in blocking buffer]. • 9. After a 1 hour incubation at room temperature, the wells were rinsed 3 times with 250 μl of TBS/0.1% Tween 20. • 10. TMB (3,3′,5,5′-tetramethylbenzidine dihydrochloride) substrate solution (100 μl; Pierce) was added to each well and the color development reaction allowed to proceed 5-10 minutes at room temperature with shaking. The reaction was stopped by the addition of 2N sulfuric acid (100 μl) and the absorbance values read at 450 nm in a microplate reader (Molecular Devices). Analysis of Results: • 1. The percentage of the absorbance value in wells containing the test compound relative to control wells (no test agent) was determined. • 2. IC50 values of selected compounds were determined from inhibition curves, after subtracting background values (no substrate).

Where [1] appears, read: In Vitro Enzyme Assays, 200 μM ATP, read-out: CDK4 IC50.
The mark [2] stands for this setting: In Vitro Enzyme Assays, read-out: CDK1 IC50.
The mark [3] stands for this setting: In Vitro Enzyme Assay, cyclin D1/cdk 4, read-out: CDK4 IC50.

T2 sequence (P06493 whole entry): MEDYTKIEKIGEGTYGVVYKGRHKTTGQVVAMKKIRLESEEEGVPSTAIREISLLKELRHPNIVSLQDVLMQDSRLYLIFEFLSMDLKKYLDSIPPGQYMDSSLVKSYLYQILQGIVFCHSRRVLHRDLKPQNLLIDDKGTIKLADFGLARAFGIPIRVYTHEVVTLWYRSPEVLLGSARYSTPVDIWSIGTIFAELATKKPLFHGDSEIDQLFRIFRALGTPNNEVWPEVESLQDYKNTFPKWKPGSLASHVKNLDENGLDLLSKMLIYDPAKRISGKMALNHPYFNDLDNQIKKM
T2 sequence (P14635 whole entry partner): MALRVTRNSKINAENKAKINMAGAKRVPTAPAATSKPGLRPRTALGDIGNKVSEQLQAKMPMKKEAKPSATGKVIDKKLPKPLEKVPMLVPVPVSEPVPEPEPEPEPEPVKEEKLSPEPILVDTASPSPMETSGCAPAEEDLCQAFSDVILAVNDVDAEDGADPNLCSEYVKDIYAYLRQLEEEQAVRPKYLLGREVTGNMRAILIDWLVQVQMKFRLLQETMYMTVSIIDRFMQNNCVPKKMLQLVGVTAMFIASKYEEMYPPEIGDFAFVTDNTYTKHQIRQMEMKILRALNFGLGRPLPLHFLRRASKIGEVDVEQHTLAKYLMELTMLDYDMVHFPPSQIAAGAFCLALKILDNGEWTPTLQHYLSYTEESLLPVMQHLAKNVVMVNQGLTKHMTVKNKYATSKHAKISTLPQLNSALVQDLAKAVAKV
T1 sequence (P11802 whole entry, species assumed): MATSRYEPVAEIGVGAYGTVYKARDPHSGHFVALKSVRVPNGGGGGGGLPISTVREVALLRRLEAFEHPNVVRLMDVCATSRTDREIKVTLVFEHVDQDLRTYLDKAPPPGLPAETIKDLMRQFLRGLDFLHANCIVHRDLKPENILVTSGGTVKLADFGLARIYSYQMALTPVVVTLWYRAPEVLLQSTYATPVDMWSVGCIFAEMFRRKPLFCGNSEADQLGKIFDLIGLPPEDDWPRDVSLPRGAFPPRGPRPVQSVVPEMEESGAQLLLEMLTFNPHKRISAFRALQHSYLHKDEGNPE
T1 sequence (P24385 whole entry partner, species assumed): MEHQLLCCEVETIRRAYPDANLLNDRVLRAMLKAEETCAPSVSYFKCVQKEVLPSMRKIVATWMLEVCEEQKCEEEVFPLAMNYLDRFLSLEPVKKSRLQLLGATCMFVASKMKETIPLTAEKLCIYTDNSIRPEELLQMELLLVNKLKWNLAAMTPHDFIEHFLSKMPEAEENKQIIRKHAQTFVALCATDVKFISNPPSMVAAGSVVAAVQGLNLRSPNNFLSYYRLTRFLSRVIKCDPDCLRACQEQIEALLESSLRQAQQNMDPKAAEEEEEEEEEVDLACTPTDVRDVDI

Take `O=C1NC(=O)c2ccc(-c3ccc(Cl)cc3)cc2/C1=C/Nc1ccc(CN2CCCCC2)cc1` [Example 111, (4Z)-6-(4-Chlorophenyl)-4-({[4-(piperidin-1-ylmethyl)phenyl]amino}methylene)isoquinoline-1,3(2H,4H)-dione]: the pIC50 in the assay with BT474 (BT474 cells, SRB, 6 days) was 5.55; with MCF-7 (MCF-7 cells, SRB, three days), 5.68; in the assay with LoVo (LoVo cells, SRB, three days), 5.92; in the assay with HCT-116 (HCT116 cells, SRB, three days), 5.92; on cyclin D1/cdk 4 enzyme (setting [1]), 4.71; on cyclin B/CDK1 enzyme (setting [2]) it was under 4.30.

`COc1ccc(-c2ccc3c(c2)/C(=C/Nc2ccc(CN4CCCCC4)cc2)C(=O)NC3=O)cc1` [Example 116, (4Z)-6-(4-Methoxyphenyl)-4-({[4-(piperidin-1-ylmethyl)phenyl]amino}methylene)-isoquinoline-1,3(2H,4H)-dione]: the pIC50 with BT474 (BT474 cells, SRB, 6 days) is 5.55; in the assay on MCF-7 (MCF-7 cells, SRB, three days), 5.49; with LoVo (LoVo cells, SRB, three days), 5.55; with HCT-116 (HCT116 cells, SRB, three days), 5.89; at cyclin B/CDK1 enzyme (setting [2]) it was under 4.30.

In the case of `O=C1NC(=O)c2ccc(N3CCCCC3)cc2/C1=C/Nc1ccc(CN2CCCCC2)cc1` [Example 118, (4Z)-6-Piperidin-1-yl-4-({[4-(piperidin-1-ylmethyl)phenyl]amino}methylene)isoquinoline-1,3(2H,4H)-dione], the pIC50 in the assay with BT474 (BT474 cells, SRB, 6 days) is 5.40; in the assay with MCF-7 (MCF-7 cells, SRB, three days), 5.36; with LoVo (LoVo cells, SRB, three days) it was 5.49; with HCT-116 (HCT116 cells, SRB, three days) it was 5.57; at cyclin B/CDK1 enzyme (setting [2]), under 4.30.

Consider `O=C1NC(=O)c2ccc(Br)cc2/C1=C/NCc1ccc(OCCO)c(O)c1` [Example 139, (4Z)-6-Bromo-4-({[3-hydroxy-4-(2-hydroxyethoxy)benzyl]amino}methylene)isoquinoline-1,3(2H,4H)-dione], for which the pIC50 in the assay with BT474 (BT474 cells, SRB, 6 days) was 4.82; in the assay with MCF-7 (MCF-7 cells, SRB, three days), under 4.30; in the assay with LoVo (LoVo cells, SRB, three days), 4.59; in the assay on HCT-116 (HCT116 cells, SRB, three days), under 4.30; at cyclin D1/cdk 4 enzyme (setting [1]) it was 7.40; at cyclin B/CDK1 enzyme (setting [2]), under 4.30.

For the compound `C[C@@H]1CN(c2ccc(N/C=C3\C(=O)NC(=O)c4ccc(I)cc43)cc2)C[C@H](C)N1` [Example 216, (4Z)-4-({[4-(3,5-Dimethylpiperazin-1-yl)phenyl]amino}methylene)-6-iodoisoquinoline-1,3(2H,4H)-dione], the negative-log IC50 (pIC50) with BT474 (BT474 cells, SRB, 6 days) was 5.96; in the assay with LoVo (LoVo cells, SRB, three days) it was 5.89; on cyclin B/CDK1 enzyme (setting [2]), under 4.30.

As to `CC1CN(c2ccc(N/C=C3\C(=O)NC(=O)c4ccc(I)cc43)cc2)CCN1C` (stereo not drawn) [Example 248, (4Z)-4-({[4-(3,4-Dimethylpiperazin-1-yl)phenyl]amino}methylene)-6-iodoisoquinoline-1,3(2H,4H)-dione], the pIC50 with BT474 (BT474 cells, SRB, 6 days) is 5.52; in the assay on LoVo (LoVo cells, SRB, three days) it was 5.55; on cyclin D1/cdk 4 enzyme (setting [1]), 5.57; on cyclin B/CDK1 enzyme (setting [2]), under 4.30.

Turning to `CN1CCN(c2ccc(NC=C3C(=O)NC(=O)c4ccc(-c5ccccc5)cc43)cc2)CC1` [Example 831, 4-{[4-(4-Methyl-piperazin-1-yl)-phenylamino]-methylene}-6-phenyl-4H-isoquinoline-1,3-dione], the negative logarithm of the IC50 (pIC50) was 5.49 in the assay on BT474 (BT474 cells, 6 days, SRB); 5.55 in the assay on LoVo (LoVo cells, 3 days, SRB); 6.72 at cyclin D1/cdk 4 enzyme (setting [3]); under 4.30 at cyclin B/CDK1 enzyme (In Vitro Enzyme Assay, cyclin B/CDK1, read-out: CDK1 IC50).

Take `N=C(N)c1ccc(NC=C2C(=O)NCc3cc(Cl)ccc32)cc1` [Example 857, 4-[(7-Chloro-3-oxo-2,3-dihydro-1H-isoquinolin-4-ylidenemethyl)-amino]-benzamidine]: the pIC50 is 4.62 with BT474 (BT474 cells, 6 days, SRB); under 4.30 in the assay on MCF-7 (MCF-7 cells, 3 days, SRB); under 4.30 with LoVo (LoVo cells, 3 days, SRB); 4.37 in the assay on HCT-116 (HCT116 cells, 3 days, SRB); 4.73 at cyclin D1/cdk 4 enzyme (setting [3]).

With `O=C1NC(=O)c2ccc([N+](=O)[O-])cc2/C1=C/Nc1ccc(CN2CCCCC2)cc1` [compound 42], the pIC50 in the assay with BT474 (BT474 cells, SRB, 6 days) was 5.40; in the assay on MCF-7 (MCF-7 cells, SRB, three days) it was 5.12; in the assay with LoVo (LoVo cells, SRB, three days), 5.23; with HCT-116 (HCT116 cells, SRB, three days), 5.52; on cyclin B/CDK1 enzyme (setting [2]), under 4.30.

For the compound `CN1CCN(c2ccc(N/C=C3\C(=O)NC(=O)c4ccc(-n5cccc5)cc43)cc2)CC1` [compound 60], the pIC50 in the assay with BT474 was 5.70; in the assay with MCF-7, 5.64; in the assay on LoVo it was 5.70; in the assay with HCT-116, 5.82; at cyclin B/CDK1 enzyme (setting [2]) it was under 4.30.
